Reference: patent publication US20220387404A1, “TREATMENT OF CANCER USING A COMBINATION COMPRISING MULTI-TYROSINE KINASE INHIBITOR AND IMMUNE CHECKPOINT INHIBITOR” (BEIGENE, LTD., priority 2019, published 2022)

Legend:
[1] = tested on: A431 (epidermal carcinoma) cells; assay: Combination efficacy in A431 allogeneic mouse model (A431 cells + human PBMC, s.c.); format: in vivo, Nod-Scid mice; details: Mab-1 10 mg/kg QW i.p., Compound 1 1.5 mg/kg QD P.O.
Procedure: Female Nod-Scid mice were pretreated with cyclophosphamide (in saline, 100 mg/kg intraperitoneal, QD×2) and disulfiram (in 0.8% Tween-80 in saline 125 mg/kg oral gavage, 2 hr after the dose of cyclophosphamide). Two days later, mice with higher body weight were subcutaneously implanted with 2.5×10^6 A431 (epidermal carcinoma) cells and 5×10^6 freshly isolated peripheral blood mononuclear cells (PBMC) on the right flank. After inoculation, mice were randomly assigned into 4 groups with 10 animals in each group according to body weight. Then mice were treated with vehicle (PEG400/0.1N HCL in saline, 40/60), Mab-1, Compound 1, and combination of Mab-1 and Compound 1, respectively. Mab-1 was given at 10 mg/kg once per week (QW) by intraperitoneal (i.p.) injection, and Compound 1 was administered at 1.5 mg/kg once per day (QD) by oral gavage (P.O.). Tumor volume was determined twice weekly in two dimensions using a caliper, and expressed in mm^3 using the formula: V=0.5(a×b^2), where a and b are the long and short diameters of the tumor, respectively.
Data are presented as mean tumor volume±standard error of the mean (SEM). Tumor growth inhibition (TGI) is calculated using the following formula:
treated t=treated tumor volume at time t;treated t0=treated tumor volume at time 0; placebo t=placebo tumor volume at time t; placebo t0=placebo tumor volume at time 0.

[2] = tested on: CT26WT (colon carcinoma) cells; assay: Combination efficacy in CT26WT syngeneic mouse model; format: in vivo, BALB/c mice; details: muCh15mt 3 mg/kg QW i.p., Compound 1 5 mg/kg QD oral gavage
Procedure: Female BALB/c mice were s.c implanted with 2×10^5 CT26WT (colon carcinoma) cells per 150 ul PBS in the right flank. After inoculation, mice were randomized into 4 groups with 12 animals in each group. The mice were treated with vehicle (PEG400/0.1N HCL in saline, 40/60), muCh15mt, Compound 1, and the combination of muCh15mt and Compound 1, respectively. MuCh15mt was given at 3 mg/kg once per week (QW) by intraperitoneal (i.p.) injection, and Compound 1 was administered at 5 mg/kg once per day (QD) by oral gavage. Tumor volume was determined twice weekly in two dimensions using a caliper, and was expressed in mm^3 using the formula: V=0.5(a×b^2) where a and b are the long and short diameters of the tumor, respectively. Data are presented as mean tumor volume 1 standard error of the mean (SEM). Tumor growth inhibition (TGI) is calculated using the following formula:
(§1) treated t=treated tumor volume at time t treated t0=treated tumor volume at time 0 placebo t=placebo tumor volume at time t placebo t0=placebo tumor volume at time 0

[3] = tested on: MC38 (colon adenocarcinoma) cells; assay: Combination efficacy in MC38 syngeneic mouse model; format: in vivo, BALB/C mice; details: muCh15mt 3 mg/kg QW i.p., Compound 1 5 mg/kg QD P.O.
Procedure: Female BALB/C mice were s.c implanted with 1×10^6 MC38 (colon adenocarcinoma) cells per 150 μl PBS in the right flank. After inoculation, mice were randomized into 4 groups with 15 animals in each group. The mice were treated with vehicle (PEG400/0.1N HCL in saline, 40/60), muCh15mt, Compound 1, and the combination treatment of much15mt and Compound 1, respectively. MuCh15mt was given at 3 mg/kg once per week (QW) by intraperitoneal (i.p.) injection, and Compound 1 was administered at 5 mg/kg once per day (QD) for 25 days by oral gavage (P.O.). Tumor volumes were determined twice weekly in two dimensions using a caliper, and were expressed in mm^3 using the formula: V=0.5(a×b^2) where a and b are the long and short diameters of the tumor, respectively.
Data are presented as mean tumor volume+standard error of the mean (SEM). Tumor growth inhihition (TGI) is calculated using the following formula:
as §1

[4] = tested on: A20 (B cell lymphoma) cells; assay: Combination efficacy in A20 syngeneic mouse model; format: in vivo, BALB/C mice; details: muCh15mt 3 mg/kg QW i.p., Compound 1 5 mg/kg QD P.O.
Procedure: Female BALB/C mice were s.c implanted with 1×10^5 A20 (B cell lymphoma) cells per 150 μl PBS in the right flank. After inoculation, tumor volumes were determined twice weekly in two dimensions using a caliper, and were expressed in mm^3 using the formula: V=0.5(a×b^2) where a and b are the long and short diameters of the tumor, respectively. When tumor volume reached approximately 100 mm^3, mice were randomized into 4 groups with 12 animals in each group according to tumor volume. The mice were then treated with vehicle (PEG400/0.1N HCL in saline, 40/60), muCh15mt, Compound 1, and the combination, respectively. MuCh15mt was given at 3 mg/kg once per week (QW) by intraperitoneal (i.p.) injection, and Compound 1 was administered at 5 mg/kg once per day (QD) by oral gavage (P.O.).
Data are presented as mean tumor volume ±standard error of the mean (SEM). Tumor growth inhibition (TGI) is calculated using the following formula:
as §1

COCCNCc1ccc(-c2cc3nccc(Oc4ccc(NC(=O)C5(C(=O)Nc6ccc(F)cc6)CC5)cc4F)c3s2)nc1 [Compound 1]
Mean Tumor Volume on Day 26 (mm^3) [1]: 851.5 mm^3 | TGI (%) on Day 26 [1]: 37% | Mean Tumor Volume on Day 28 (mm^3) [2]: 723.2 mm^3 | TGI (%) on Day 28 [2]: 71% | Tumor Free Animal (%) on Day 28 [2]: 6.7% | Mean Tumor Volume on Day 25 (mm^3) [3]: 1089.5 mm^3 | TGI (%) on Day 25 [3]: 56% | Tumor Free Animal % on Day 25 [3]: 0% | TGI (%) on Day 15 ([4]; Day 15): 71% | Mean Tumor Volume on Day 18 (mm^3) ([4]; Day 18): 735.7 mm^3 | Tumor Free Animal % on Day 18 ([4]; Day 18): 8.3%
